Test results from US7276532B2, “Remedies for vesical hyperactivity” (Kyowa Hakko Kogyo Co., Ltd., priority 2001, dated 2007).

Assays:
[1] = test system: rats with bladder hypertrophy; assay: Inhibitory activity on detrusor instability (cystometry test after partial urethral obstruction); assay type: in vivo, rat; details: average ± standard error
Experimental: The experiment was carried out according to the method of Malmgren, et al. [J. Urol., Vol. 142, pp. 1134-1138 (1989)].
Female SD rats of 8 to 10 weeks of age (supplied by Japan SLC) were used in the test. Five to seven animals of these rats were put in each metal cage and reared by allowing them to freely take commercially available chow and water, in an animal room at room temperature between 19 and 25° C. and humidity between 30 and 70% under illumination for 12 hours (7:00 a.m.-7:00 p.m.) per day.
The rats were subjected to operation of partial urethral obstruction. Each animal was anesthetized by intraperitoneal administration of 50 mg/kg pentobarbital sodium (Dainippon Pharmaceutical Co., Ltd.), and the midline incision of the skin and muscle was made in the lower abdomen. A polyethylene tube (PE-20, Nippon Becton Dickinson Co., Ltd.) was inserted into urethra from the urethral to the bladder neck. After the proximal urethra was peeled and double-ligated, the polyethylene tube was pulled out to cause partial urethral obstruction. The incised part was-sutured with a surgical silk thread. An antibiotic (ampicillin, Sigma Chemical Co.) was intramusclarly administered to the animals at a dose of 150 mg/kg.
Six weeks after the operation of the partial urethral obstruction, the rats with bladder hypertrophy were subjected to bladder catheterization. Under anesthesia with pentobarbital sodium, the bladder was exposed by midline incision of the abdomen. […] The bladder catheter was fixed with a surgical silk ligature and indwelled. The other end of the catheter was exposed subcutaneously from the back of the neck, plugged and then fixed to the skin with a surgical thread.
Four to six days after the bladder catheterization, a cystometry test was performed. The rats were put in a Bollman cage (Natsume Seisakusho Co., Ltd.) and a three-way cock was connected to the bladder catheter, one end of the cock was connected to a pressure transducer (Nihon Kohden Corp.) and the other end was connected to a 50-mL syringe (Terumo Corp.) arranged to an infusion pump (Harvard Apparatus, Inc.) for physiological saline infusion. The intravesical pressure signal from the pressure transducer was amplified with a strain pressure amplifier (AP-601G, Nihon Kohden Corp.) connected thereto, and was recorded on a thermal array recorder (RTA-1200, Nihon Kohden Corp.) via a polygraph system (RMP-6008, Nihon Kohden Corp.) containing the above amplifier. Sixty to ninety minutes after the completion of the preparation for the measurement, intravesical infusion of a room temperature physiological saline at a flow rate of 10 mL/h was started and continued until the completion of the test, and the occurrence of micturition contractions and pre-micturition contractions were confirmed. The chart for 30 minutes after 3 hours from the commencement of the saline infusion was used as the values before the drug administration. Each of Compounds 1 to 3 was suspended in a 0.5 w/v % aqueous solution of methylcellulose at a concentration of 1 mg/mL. The suspension was further diluted with a 0.5 w/v % aqueous solution of methylcellulose to prepare a suspension or solution for the administration at the intended concentration. This was then orally administered to the animals at a volume of 1 mL/kg. The period of 1, 3 and 5 hours after the dosing was used as the measuring time after the administration of the solvent or a compound tested, and a duration of 15 minutes around each measuring time (45 to 75 minutes, 165 to 195 minutes and 285 to 315 minutes after the administration of the compound) was used as the measuring period.
Micturition contraction was used as an index of the voiding function and pre-micturition contraction was measure as an index of detrusor instability. […]

[2] = test system: spinal cord-injured rats; assay: Inhibitory activity on detrusor hyperreflexia (cystometry test); assay type: in vivo, rat; details: average ± standard error
Experimental: The experiment was carried out according to the method of Cheng, et al. [Brain Res., Vol. 678, pp. 40-48 (1995)].
Female SD rats of 8 to 10 weeks of age (supplied by Japan SLC) were used in the test. Five to seven animals of these rats were put in each metal cage and reared by allowing them to freely take commercially available chow and water, in an animal room at room temperature between 19 and 25° C. and humidity between 30 and 70% under illumination for 12 hours (from 7:00 a.m. to 7:00 p.m.) per day.
An operation of spinal cord injury was performed in the rats. Each animal was anesthetized with diethyl ether and the skin of the back side thoracic cord part was incised. A laminectomy at the 7th to 8th thoracic vertebrae level was performed. Then, the thoracic cord at the T7-T8 segments was macroscopically cut and a section of spinal cord (about 5 mm) was removed, and the wound cavity of the removed part was filled with oxidized regenerated cellulose for hemostasis. The incised part was sutured with a surgical silk. After the spinal cord injury operation, urine was expressed manually twice per day (at 8:00-9:00 and 18:00-19:00) for about 3 weeks until autonomic micturition developed. An antibiotic (ampicillin, Sigma. Chemical Co.) was intramuscularly administered to the animals at a dose of 150 mg/kg once to twice per day for about 2 weeks.
Four to five weeks after the spinal cord injury, the rats were subjected to bladder catheterization. Under diethyl ether anesthesia, the bladder was exposed by midline incision of the abdomen. […] The bladder catheter was fixed with a surgical silk ligature and indwelled. The other end of the catheter was exposed subcutaneously from the back of the neck, plugged and then fixed to the skin with a surgical thread.
Four to six days after the bladder catheterization, a cystometry test was performed. The rats were put in a Bollman cage (Natsume Seisakusho Co., Ltd.) and a three-way cock was connected to the bladder catheter, one end of the cock was connected to a pressure transducer (Nihon Kohden Corp.) and the other end was connected to a 50-mL syringe (Terumo Corp.) arranged to an infusion pump (Harvard Apparatus, Inc.) for physiological saline infusion. The intravesical pressure signal from the pressure transducer was amplified with a strain pressure amplifier (AP-601G, Nihon Kohden Corp.) connected thereto, and was recorded on a thermal array recorder (RTA-1200, Nihon Kohden Corp.) via a polygraph system (RMP-6008, Nihon Kohden Corp.) containing the above amplifier. Sixty to ninety minutes after the completion of the preparation for the measurement, a room temperature physiological saline was infused into the bladder at a flow rate of 10 mL/h for 30 minutes, the occurence of micturition contractions was confirmed. Thirty minutes later, the infusion of physiological saline was carried out again for 30 minutes, and the intravesical pressure was measured to be used as the pre-administration value. Each of Compounds 1 to 6 was suspended in a 0.5 w/v % aqueous solution of methylcellulose at a concentration of 1 mg/mL suspension. The suspension was further diluted with a 0.5 w/v % aqueous solution of methylcellulose to prepare a suspension or solution for the administration at the intended concentration, which was then orally administered to the animals at a volume of 1 mL/kg. The period of 1, 3 and 5 hours after the dosing was used as the measuring time after the administration of the solvent or a compound tested, and the intravesical infusion of a physiological saline was carried out during a duration of 15 minutes around each measuring time (i.e. from 45 to 75 minutes, from 165 to 195 minutes and from 285 to 315 minutes after the administration of the compound).
Micturition contraction was measured as an index of the voiding function and pre-micturition contraction was measured as an index of detrusor hyperreflexia. […]

[3] = test system: dd male mice; assay: Acute toxicity test; assay type: in vivo; details: oral administration, mortality on the seventh day after administration
Experimental: The test compound was administered orally or intraperitoneally to 3 animals per group of dd male mice (body weight: 20±1 g). The minimum lethal dose (MLD) value was obtained by observing mortality on the seventh day after the administration calculated.

## C[C@](O)(C(=O)Nc1cccc2c1C(=O)c1sccc1CS2(=O)=O)C(F)(F)F [Compound 1]
[1]; 0.001 mg/kg p.o., after 1 hr.
  micturition contractions (relative value, before administration = 100): 99.3 ± 2.3%
  pre-micturition contractions (relative value, before administration = 100): 105.9 ± 7.8%
[1]; 0.001 mg/kg p.o., after 3 hrs.
  micturition contractions (relative value, before administration = 100): 101.5 ± 3.3%
  pre-micturition contractions (relative value, before administration = 100): 100.3 ± 10.0%
[1]; 0.001 mg/kg p.o., after 5 hrs.
  micturition contractions (relative value, before administration = 100): 98.7 ± 5.2%
  pre-micturition contractions (relative value, before administration = 100): 104.2 ± 10.2%
[1]; 0.01 mg/kg p.o., after 1 hr.
  micturition contractions (relative value, before administration = 100): 99.6 ± 1.2%
  pre-micturition contractions (relative value, before administration = 100): 59.5 ± 4.1 %
[1]; 0.01 mg/kg p.o., after 3 hrs.
  micturition contractions (relative value, before administration = 100): 92.6 ± 3.2%
  pre-micturition contractions (relative value, before administration = 100): 69.5 ± 4.4 %
[1]; 0.01 mg/kg p.o., after 5 hrs.
  micturition contractions (relative value, before administration = 100): 90.1 ± 4.3%
  pre-micturition contractions (relative value, before administration = 100): 67.8 ± 5.5 %
[1]; 0.1 mg/kg p.o., after 1 hr.
  micturition contractions (relative value, before administration = 100): 106.2 ± 9.2%
  pre-micturition contractions (relative value, before administration = 100): 55.8 ± 8.2 %
[1]; 0.1 mg/kg p.o., after 3 hrs.
  micturition contractions (relative value, before administration = 100): 105.2 ± 9.6%
  pre-micturition contractions (relative value, before administration = 100): 66.2 ± 4.7 %
[1]; 0.1 mg/kg p.o., after 5 hrs.
  micturition contractions (relative value, before administration = 100): 100.1 ± 8.6%
  pre-micturition contractions (relative value, before administration = 100): 69.2 ± 7.4 %
[2]; 0.001 mg/kg p.o., after 1 hr.
  micturition contractions (relative value, before administration = 100): 106.5 ± 11.3%
  pre-micturition contractions (relative value, before administration = 100): 83.5 ± 6.8%
[2]; 0.001 mg/kg p.o., after 3 hrs.
  micturition contractions (relative value, before administration = 100): 101.7 ± 9.5%
  pre-micturition contractions (relative value, before administration = 100): 95.4 ± 12.0%
[2]; 0.001 mg/kg p.o., after 5 hrs.
  micturition contractions (relative value, before administration = 100): 103.1 ± 6.5%
  pre-micturition contractions (relative value, before administration = 100): 105.5 ± 20.8%
[2]; 0.01 mg/kg p.o., after 1 hr.
  micturition contractions (relative value, before administration = 100): 114.4 ± 9.5%
  pre-micturition contractions (relative value, before administration = 100): 59.6 ± 8.1 %
[2]; 0.01 mg/kg p.o., after 3 hrs.
  micturition contractions (relative value, before administration = 100): 117.6 ± 13.9%
  pre-micturition contractions (relative value, before administration = 100): 51.2 ± 6.7 %
[2]; 0.01 mg/kg p.o., after 5 hrs.
  micturition contractions (relative value, before administration = 100): 117.6 ± 12.7%
  pre-micturition contractions (relative value, before administration = 100): 42.2 ± 7.2 %
[2]; 0.1 mg/kg p.o., after 1 hr.
  micturition contractions (relative value, before administration = 100): 109.3 ± 6.3%
  pre-micturition contractions (relative value, before administration = 100): 52.3 ± 9.1 %
[2]; 0.1 mg/kg p.o., after 3 hrs.
  micturition contractions (relative value, before administration = 100): 110.2 ± 5.4%
  pre-micturition contractions (relative value, before administration = 100): 33.3 ± 6.3 %
[2]; 0.1 mg/kg p.o., after 5 hrs.
  micturition contractions (relative value, before administration = 100): 112.4 ± 7.0%
  pre-micturition contractions (relative value, before administration = 100): 28.5 ± 6.2 %
[3]
  minimum lethal dose (MLD): > 1000 mg/kg
